We go through 31 compounds from patent US20010039275A1, “Use of 2,4-diaminothiazole derivatives” (priority 2000, published 2001).

Regarding `Nc1nc(Nc2ccccc2)sc1C(=O)c1ccc(C(F)(F)F)cc1` [Example 6, (4-Amino-2-phenylaminothiazol-5-yl)-(4-trifluoromethylphenyl)methanone], the melting point (usually the temperature, or range, at which the solid turns liquid) lay in the range of 201 to 205 °C. To `CCN(CC)c1ccc(C(=O)c2sc(Nc3ccccc3)nc2N)cc1` [Example 7, (4-Amino-2-phenylaminothiazol-5-yl)-(4-diethylaminophenyl)methanone] belongs 214 to 216 °C. Consider `Nc1nc(Nc2ccccc2)sc1C(=O)c1ccc(OC(F)(F)F)cc1` [Example 8, (4-Amino-2-phenylaminothiazol-5-yl)-(4-trifluoromethoxyphenyl)methanone], for which the melting point lay in the range of 170 to 173 °C. To `CCC(=O)c1sc(Nc2ccccc2)nc1N` [Example 11, 1-(4-Amino-2-phenylaminothiazol-5-yl)propan-1-one] belongs 136 to 139 °C; to `Nc1nc(Nc2ccccc2)sc1C(=O)c1ccc(F)c(F)c1` [Example 12, (4-Amino-2-phenylaminothiazol-5-yl)-(3,4-difluorophenyl)methanone], 178 to 180 °C; to `Nc1nc(Nc2ccccc2)sc1C(=O)c1cccc(F)c1` [Example 13, (4-Amino-2-phenylaminothiazol-5-yl)-(3-fluorophenyl)methanone], 161 to 164 °C.

In turn, `Nc1nc(Nc2ccccc2)sc1C(=O)c1ccc2ccccc2c1` [Example 14, (4-Amino-2-phenylaminothiazol-5-yl)naphthalen-2-ylmethanone] came in with a melting point of 227 to 229 °C. To `Nc1nc(Nc2ccccc2)sc1C(=O)c1ccc(-c2ccccc2)cc1` [Example 15, (4-Amino-2-phenylaminothiazol-5-yl)biphenyl-4-ylmethanone] belongs 224 to 225 °C. The compound `Nc1nc(Nc2ccccc2)sc1C(=O)c1cccc(OCc2ccccc2)c1` [Example 16, (4-Amino-2-phenylaminothiazol-5-yl)-(3-benzyloxyphenyl)methanone] registered a melting point of 121 to 124 °C.

`Nc1nc(Nc2ccc(Br)cc2)sc1C(=O)C1CC1` [Example 17, [4-Amino-2-(4-bromophenylamino)thiazol-5-yl]cyclopropylmethanone] registered a melting point of 204 to 206 °C. To `Nc1nc(Nc2ccccc2)sc1C(=O)c1ccc(Cl)c(Cl)c1` [Example 18, (4-Amino-2-phenylaminothiazol-5-yl)-(3,4-dichlorophenyl)methanone] belongs 195 to 198 °C. To `Cc1c(C(=O)c2sc(Nc3ccccc3)nc2N)sc2ccccc12` [Example 19, (4-Amino-2-phenylaminothiazol-5-yl)-(3-methylbenzo[b]thiophen-2-yl) methanone] belongs 165 to 167 °C; to `Nc1nc(Nc2ccccc2)sc1-c1ccc([N+](=O)[O-])cc1` [Example 20, 4-Amino-2-phenylamino-5-(4-nitrophenyl)thiazole], 217 to 219 °C. The compound `Nc1nc(Nc2ccccc2)sc1C(=O)c1ccc(Cl)s1` [Example 21, (4-Amino-2-phenylaminothiazol-5-yl)-(5-chlorothiophen-2-yl)methanone] registered a melting point of 167 to 169 °C. To `COc1ccccc1C(=O)c1sc(Nc2ccccc2)nc1N` [Example 22, (4-Amino-2-phenylaminothiazol-5-yl)-(2-methoxyphenvl)methanone] belongs 196 to 200 °C. To `COc1cccc(C(=O)c2sc(Nc3ccccc3)nc2N)c1` [Example 23, (4-Amino-2-phenylaminothiazol-5-yl)-(3-methoxyphenyl)methanone] belongs 174 to 175 °C; to `Nc1nc(Nc2ccccc2)sc1C(=O)c1ccccc1[N+](=O)[O-]` [Example 25, (4-Amino-2-phenylaminothiazol-5-yl)-(2-nitrophenyl)methanone], 117 to 119 °C.

As to `Nc1nc(Nc2ccccc2)sc1C(=O)c1ccc([N+](=O)[O-])cc1` [Example 27, (4-Amino-2-phenylaminothiazol-5-yl)-(4-nitrophenyl)methanone], the melting point lay in the range of 206 to 208 °C. To `Cc1cc(C(=O)c2sc(Nc3ccccc3)nc2N)ccc1Cl` [Example 28, (4-amino-2-phenylaminothiazol-5-yl)-(4-chloro-3-methylphenyl)methanone] belongs 173 to 175 °C; to `Nc1nc(Nc2ccccc2)sc1C(=O)c1ccc(O)c(O)c1` [Example 29, (4-Amino-2-phenylaminothiazol-5-yl)-(3,4-dihydroxyphenyl)methanone], 222 to 224 °C. In turn, `COc1ccc(C(=O)c2sc(Nc3ccccc3)nc2N)c(OC)c1` [Example 30, (4-Amino-2-phenylaminothiazol-5-yl)-(2,4-dimethoxyphenyl)methanone] returned a melting point of 196 to 198 °C. To `CCCNc1nc(N)c(C(=O)c2cccnc2)s1` [Example 32, (4-Amino-2-propylaminothiazol-5-yl)pyridin-3-yl-methanone] belongs 205 to 206 °C; to `Cc1cc(C)c(C(=O)c2sc(Nc3ccccc3)nc2N)c(C)c1` [Example 35, (4-Amino-2-phenylaminothiazol-5-yl)-(2,4,6-trimethylphenyl)methanone], 198 to 200 °C.

Compound `COc1cccc(OC)c1C(=O)c1sc(Nc2ccccc2)nc1N` [Example 37, (4-Amino-2-phenylaminothiazol-5-yl)-(2,6-dimethoxyphenyl)methanone] had a melting point of 224 to 226 °C. To `COC(=O)c1sc(Nc2ccccc2)nc1N` [Example 38, 4-Amino-2-phenylaminothiazole-5-carboxylic acid methyl ester] belongs 173 to 174 °C; to `Nc1nc(Nc2ccccc2)sc1C(=O)c1csc2ccccc12` [Example 40, (4-Amino-2-phenylaminothiazol-5-yl)-benzofblthiophen-3-yl-methanone], 211 to 212 °C. To `Nc1nc(Nc2ccccc2)sc1C(=O)c1c(Cl)cccc1Cl` [Example 42, (4-Amino-2-phenylaminothiazol-5-yl)-(2,6-dichlorophenyl)methanone] belongs 245 to 246 °C; to `Nc1nc(Nc2ccccc2)sc1C(=O)Nc1ccccc1` [Example 45, 4-Amino-2-phenylaminothiazole-5-carboxylic acid phenylamide], 75 °C; to `CON(C)C(=O)c1sc(Nc2ccccc2)nc1N` [Example 46, 4-Amino-2-phenyiaminothiazole-5-carboxylic acid methoxymethylamide], 152 to 153 °C. For `Nc1nc(Nc2ccccc2)sc1C(=O)N1CCOCC1` [Example 49, (4-Amino-2-phenylaminothiazol-5-yl)morpholin-4-ylmethanone], the melting point was in the range of 212 to 213 °C.

Consider `Nc1nc(Nc2ccc(Cl)cc2)sc1C(=O)c1cccc(OCc2ccccc2)c1` [Example 54, [4-Amino-2-(4-chlorophenylamino)thiazol-5-yl]-(3-benzyloxyphenyl)methanone], for which the melting point lay in the range of 173 to 174 °C.
